Some test systems named below: DLD-1 colon; HOP-92 NSCLC; LOX IMVI melanoma; HOP-62 NSCLC; RXF 393 renal; M19-MEL melanoma; HL-60(TB) leukemia; IGROV1 ovarian; MDA-MB-435; MCF7 breast.
Common to all, as to test: inhibition of tumour cell growth, NCI panel, 48 h

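Following 48 hours of exposure in 96-well plates, responses at five concentrations were used to interpolate endpoints linearly. GI50: concentration for 50% inhibition of growth. The concentration for full growth arrest is given as TGI.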

On to `COC(=O)C1=C(O)c2cc3c(cc2[C@H](c2cc(OC)c(OC)c(OC)c2)C1C(=O)OC)OCO3` (some centres not stated), for which the TGI is over 100 µM in the assay with DLD-1 colon; over 100 µM with HOP-92 NSCLC; over 100 µM in the assay on LOX IMVI melanoma; over 100 µM in the assay with HOP-62 NSCLC; 73.4 µM in the assay with RXF 393 renal; over 100 µM with M19-MEL melanoma. Moreover, the TGI in the assay with HL-60(TB) leukemia and in the assay on IGROV1 ovarian was over 100 µM throughout.

Regarding `CC1CCC(C(C)C)C(O[C@@H]2OC(=O)C[C@@H]2Sc2ccccc2)C1` (some centres not stated), the TGI in the assay on DLD-1 colon was over 100 µM; in the assay on LOX IMVI melanoma, 26.3 µM; in the assay with HOP-62 NSCLC, 96 µM; in the assay with RXF 393 renal, 31.9 µM; with M19-MEL melanoma it was 62.1 µM; in the assay with HL-60(TB) leukemia, 43.6 µM. In addition, the TGI with IGROV1 ovarian is over 100 µM.

Turning to `C=C1CCc2occ(C)c2C2C1C1=C(CC(C)C1=O)C1OC12C` (configuration not stated), the TGI in the assay on DLD-1 colon, with HOP-92 NSCLC, in the assay with LOX IMVI melanoma, in the assay with HOP-62 NSCLC, in the assay with RXF 393 renal and in the assay on M19-MEL melanoma was over 100 µM each time. For the same molecule, the TGI in the assay with IGROV1 ovarian is over 100 µM.

In the case of `O=C1CCC2(c3ccccc3)Nc3ncccc3N12` (configuration not stated), the TGI in the assay with DLD-1 colon, in the assay on HOP-92 NSCLC, in the assay on LOX IMVI melanoma, in the assay with HOP-62 NSCLC, in the assay with RXF 393 renal and in the assay with M19-MEL melanoma was over 100 µM each time. For the same molecule, the TGI in the assay on HL-60(TB) leukemia and in the assay on IGROV1 ovarian was over 100 µM in each case.

Take `CC#CC1C(OC(=O)c2ccccc2)CCCC1(CI)N=[N+]=[N-]` (configuration not stated): the TGI was over 100 µM in the assay on DLD-1 colon; over 100 µM with HOP-92 NSCLC; over 100 µM with HOP-62 NSCLC; over 100 µM in the assay on RXF 393 renal; over 100 µM in the assay on M19-MEL melanoma; 42.2 µM with HL-60(TB) leukemia. This molecule returned a TGI with IGROV1 ovarian of over 100 µM.

With `CS/C(C)=N/OC(=O)NCCCCNc1ccc(N=[N+]=[N-])cc1`, the TGI with DLD-1 colon, with HOP-92 NSCLC, in the assay with LOX IMVI melanoma, in the assay on HOP-62 NSCLC, in the assay with RXF 393 renal and with M19-MEL melanoma was over 100 µM throughout. The TGI with IGROV1 ovarian is over 100 µM.

As for `C=C1CCC2[C@@H](CCC3[C@]2(C)CCC[C@]3(C)C(=O)OC)C1CCO` (some centres not stated), the TGI in the assay on DLD-1 colon came out at 46.8 µM; in the assay with HOP-92 NSCLC, 20.1 µM; in the assay with HOP-62 NSCLC it was 41.7 µM; in the assay with M19-MEL melanoma, 29.9 µM; in the assay with HL-60(TB) leukemia, 9.36 µM; with IGROV1 ovarian, 29.6 µM.

With `N.N.NCCCCCCN.O=C([O-])CC(=O)[O-].O=C([O-])CC(=O)[O-].[Pt+4].[Pt+4]`, the GI50 is over 100 µM in the assay on DLD-1 colon; over 100 µM in the assay on HOP-92 NSCLC; over 100 µM in the assay with LOX IMVI melanoma; 38.7 µM with HOP-62 NSCLC; over 41.4 µM in the assay with RXF 393 renal; 23.7 µM in the assay with HL-60(TB) leukemia. The GI50 in the assay with IGROV1 ovarian is over 100 µM. In addition, the TGI in the assay with DLD-1 colon, with HOP-92 NSCLC, in the assay on LOX IMVI melanoma, in the assay on HOP-62 NSCLC, in the assay on RXF 393 renal and in the assay with HL-60(TB) leukemia was over 100 µM each time. For the same molecule, in the assay on IGROV1 ovarian, the TGI was over 100 µM.

Regarding `COc1ccc(/C=C2\CCC(CN(C)C)C2=O)cc1OC` (configuration not stated), the TGI in the assay on DLD-1 colon is 8.83 µM; in the assay on HOP-92 NSCLC, 21 µM; with LOX IMVI melanoma it was 3.96 µM; in the assay with MDA-MB-435, 16.1 µM; with HOP-62 NSCLC, 39.9 µM; in the assay with RXF 393 renal it was 5.16 µM. Moreover, the TGI with M19-MEL melanoma came out at 24.4 µM; in the assay with HL-60(TB) leukemia, 8.62 µM; in the assay on IGROV1 ovarian it was 33.1 µM; in the assay on MCF7 breast, 8.51 µM.

As to `CC(=O)NC1CC2Oc3ccc(C)cc3C(C)(O2)C1O` (configuration not stated), the TGI with DLD-1 colon, in the assay with LOX IMVI melanoma, in the assay on HOP-62 NSCLC, in the assay with RXF 393 renal, with M19-MEL melanoma and with HL-60(TB) leukemia was over 100 µM each time. The same molecule displayed a TGI in the assay on IGROV1 ovarian of over 100 µM.

As to `COC(=O)C1=C(C(=O)OC)SC(=C(N=Nc2ccccc2)c2ccccc2)S1`, the TGI in the assay on DLD-1 colon, with HOP-92 NSCLC, in the assay with LOX IMVI melanoma, with HOP-62 NSCLC, in the assay with M19-MEL melanoma and in the assay on HL-60(TB) leukemia was over 100 µM each time. Also, the TGI in the assay on IGROV1 ovarian was over 100 µM.

Take `C[C@@H](NC1CCC[C@H]1O)c1ccccc1` (some centres not stated): the TGI in the assay with DLD-1 colon, with HOP-92 NSCLC, in the assay with LOX IMVI melanoma, with HOP-62 NSCLC, in the assay with RXF 393 renal and in the assay on M19-MEL melanoma was over 100 µM each time. The TGI in the assay with HL-60(TB) leukemia and in the assay on IGROV1 ovarian was over 100 µM in each case.

As to `C/C=C/C=C/CCCCCCCCCCCCCC1(OC)C=CC(CC(=O)OC)OO1` (configuration not stated), the GI50 in the assay with DLD-1 colon is 5.79 µM; in the assay on LOX IMVI melanoma, 2.02 µM; with HOP-62 NSCLC, 20 µM; with RXF 393 renal, 4.24 µM; in the assay with IGROV1 ovarian, 0.509 µM. For the same molecule, the TGI with DLD-1 colon is 23.8 µM; in the assay with HOP-92 NSCLC, 4.12 µM; in the assay with LOX IMVI melanoma, 3.9 µM; in the assay on HOP-62 NSCLC it was 41.6 µM; in the assay on RXF 393 renal it was 15.3 µM; in the assay with M19-MEL melanoma it was 24.1 µM. For the same molecule, the TGI in the assay with HL-60(TB) leukemia is 18.4 µM; in the assay on IGROV1 ovarian it was 1.03 µM.

`CCN(CC)CC(C(=O)Nc1c(C)cccc1C)/C(C)=N\NC(=O)c1ccncc1` (configuration not stated): the TGI with DLD-1 colon, in the assay on HOP-92 NSCLC, in the assay with LOX IMVI melanoma, with HOP-62 NSCLC, in the assay on RXF 393 renal and in the assay with M19-MEL melanoma was over 100 µM each time. In the assay with IGROV1 ovarian, this molecule showed a TGI of over 100 µM.

For `C1CCOC2(CCC3(CC2)OCCCCO3)OC1`, the TGI with DLD-1 colon, with HOP-62 NSCLC, in the assay with RXF 393 renal, in the assay on M19-MEL melanoma, in the assay with HL-60(TB) leukemia and in the assay on IGROV1 ovarian was over 100 µM throughout.

`C=CC1C(OC2OC(CO)C(O)C(O)C2O)OC=C(C(=O)OC)C1CC=O` (configuration not stated): the TGI in the assay with DLD-1 colon, in the assay on LOX IMVI melanoma, with HOP-62 NSCLC, in the assay with RXF 393 renal, in the assay with M19-MEL melanoma and with HL-60(TB) leukemia was over 100 µM each time. Further, in the assay on IGROV1 ovarian, the TGI was over 100 µM.

Turning to `CC(C)C12C=CC(C)(CC1)n1c(=O)c3cc4ccccc4cc3c(=O)n12` (configuration not stated), the TGI with DLD-1 colon, in the assay on HOP-92 NSCLC, in the assay with LOX IMVI melanoma, with HOP-62 NSCLC, with RXF 393 renal and in the assay on M19-MEL melanoma was over 100 µM throughout. Moreover, the TGI in the assay with HL-60(TB) leukemia and in the assay on IGROV1 ovarian was over 100 µM each time.

Turning to `CCC(=O)N(O)C(C)(C)C`, the TGI with DLD-1 colon, with HOP-92 NSCLC, in the assay on LOX IMVI melanoma, in the assay with HOP-62 NSCLC, in the assay with RXF 393 renal and in the assay with M19-MEL melanoma was over 100 µM throughout. The TGI in the assay with HL-60(TB) leukemia and in the assay on IGROV1 ovarian was over 100 µM each time.

Turning to `CS/C(=N\c1nccs1)NC(=O)c1cccc(Cl)c1`, the TGI in the assay on DLD-1 colon, with HOP-92 NSCLC, in the assay with LOX IMVI melanoma, with HOP-62 NSCLC, in the assay on RXF 393 renal and in the assay with M19-MEL melanoma was over 100 µM throughout. The TGI in the assay on HL-60(TB) leukemia and with IGROV1 ovarian was over 100 µM in each case.

As for `N#Cc1cc([N+](=O)[O-])ccc1NC(=O)/C(=N/N)C(C(=O)c1ccc(Cl)c(Cl)c1)C1OC(=O)c2ccccc21` (configuration not stated), the TGI is over 100 µM in the assay with DLD-1 colon; 60 µM in the assay with HOP-92 NSCLC; over 100 µM in the assay on LOX IMVI melanoma; over 100 µM with HOP-62 NSCLC; over 100 µM in the assay on RXF 393 renal; over 100 µM with M19-MEL melanoma. The molecule also returned a TGI in the assay with IGROV1 ovarian of over 100 µM.

Regarding `COc1cccc2nc3cc(C)c(C)cc3nc12`, the TGI with DLD-1 colon, in the assay with HOP-92 NSCLC, in the assay on LOX IMVI melanoma, in the assay with HOP-62 NSCLC, in the assay on RXF 393 renal and in the assay with M19-MEL melanoma was over 100 µM in each case. For the same molecule, the TGI in the assay on HL-60(TB) leukemia and with IGROV1 ovarian was over 100 µM throughout.

Consider `CCC1CCc2c(OC)ccc(OCC(=O)O)c2C1=O` (configuration not stated), for which the TGI in the assay with DLD-1 colon, in the assay with LOX IMVI melanoma, with HOP-62 NSCLC, in the assay with RXF 393 renal, with M19-MEL melanoma and in the assay with HL-60(TB) leukemia was over 100 µM in each case. The molecule further gave a TGI in the assay with IGROV1 ovarian of over 100 µM.

Consider `O=c1[nH]c(-c2ccc(-c3nc4cc([N+](=O)[O-])ccc4c(=O)[nH]3)cc2)nc2cc([N+](=O)[O-])ccc12`, for which the TGI in the assay on DLD-1 colon, in the assay with HOP-92 NSCLC, in the assay on LOX IMVI melanoma, in the assay on HOP-62 NSCLC, with RXF 393 renal and with M19-MEL melanoma was over 100 µM each time. Moreover, the TGI in the assay with HL-60(TB) leukemia and with IGROV1 ovarian was over 100 µM throughout.

`CCCC(Sc1ccccc1)P(=O)(c1ccccc1)c1ccccc1` (configuration not stated): the TGI with DLD-1 colon was over 100 µM; in the assay with HOP-92 NSCLC it was 60.1 µM; in the assay with LOX IMVI melanoma it was over 100 µM; in the assay on HOP-62 NSCLC, over 100 µM; with RXF 393 renal it was over 100 µM; in the assay on M19-MEL melanoma, over 100 µM. The same molecule had a TGI with HL-60(TB) leukemia of 52.6 µM.

`COc1cc(/C=C/C(=O)c2sc(NNC(C)=O)nc2C)ccc1O`: the TGI in the assay with DLD-1 colon, with HOP-92 NSCLC, in the assay on LOX IMVI melanoma, with HOP-62 NSCLC, with RXF 393 renal and in the assay with HL-60(TB) leukemia was over 100 µM in each case. Further, the TGI in the assay on IGROV1 ovarian is over 100 µM.

The values are drawn from PubChem BioAssay (NCI).
